This is an account of results in PMC11379592 (BBA Advances, 2024).

Data set [1] concerns formalin-induced orofacial pain in female rats. The settings on record: doses ranging from 0.5 to 5 mg/kg; cited from earlier work.
Data set [2] can be described thus: plasma stability assay, rat plasma. It counts as in vitro ADME. The settings on record: 37 °C, pH 7.4, 0-120 min.
Data set [3] can be described thus: plasma stability assay, human plasma. The class given is in vitro ADME. The settings on record: pH 7.4.
Data set [4] has as its target T1, mouse sEH (Mus musculus, UniProt P34914).
T1 sequence (P34914 1-554): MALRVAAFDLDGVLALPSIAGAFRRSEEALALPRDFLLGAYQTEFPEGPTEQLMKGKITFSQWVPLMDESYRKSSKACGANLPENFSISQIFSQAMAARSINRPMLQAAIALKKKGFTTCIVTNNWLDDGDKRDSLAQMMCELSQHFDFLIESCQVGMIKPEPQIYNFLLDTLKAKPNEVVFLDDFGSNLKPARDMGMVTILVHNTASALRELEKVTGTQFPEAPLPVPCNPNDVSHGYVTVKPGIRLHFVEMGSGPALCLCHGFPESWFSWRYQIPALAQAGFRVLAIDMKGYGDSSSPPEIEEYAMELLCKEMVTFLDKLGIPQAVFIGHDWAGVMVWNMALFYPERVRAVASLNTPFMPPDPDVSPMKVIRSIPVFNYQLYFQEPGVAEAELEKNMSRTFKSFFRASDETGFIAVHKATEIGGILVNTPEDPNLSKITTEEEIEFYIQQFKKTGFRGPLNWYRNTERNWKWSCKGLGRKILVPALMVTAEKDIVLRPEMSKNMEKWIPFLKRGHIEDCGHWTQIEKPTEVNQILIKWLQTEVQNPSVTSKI
The data set can be described thus: mouse sEH inhibition assay. The class given is biochemical.

As to `CNS(=O)(=O)Cc1ccc2[nH]cc(CCN(C)C)c2c1` [sumatriptan], the “effect on formalin-induced orofacial pain” value in data set [1] is given as “inhibit formalin-induced orofacial pain”.
For orientation: half-life means the time in which the quantity being followed falls by half. Low readings indicate fast loss, high ones slow loss. In the case of `Cc1ccc(-c2csc(-c3ccc(NC(=O)C4CCN(S(=O)(=O)c5ccccc5Cl)CC4)cc3)n2)cc1` [SW-17, 1-((2-chlorophenyl)sulfonyl)-N-(4-(4-(p-tolyl)thiazol-2-yl)phenyl)piperidine-4-carboxamide], in data set [2] (5 μM), the Half-life is given as 31.1 min. In addition, the half-life at 5 μM in data set [2] (rat, plasma, pH 7.4, Half-life) is about 30 min; in data set [3], 410 min. In addition, the “activity in mouse sEH inhibition assay (in words)” value in data set [4] is “weak inhibitor”.
